Test results as given in patent US20170320939A1, “COLL2-1 PEPTIDE AND ITS NITRATED FORM AS THERAPEUTIC TARGETS FOR OSTEOARTHRITIS TREATMENT” (Université de Liège, priority 2014, published 2017).
Each block holds one compound with its values, some of them ahead of it. Square brackets hold non-standard residues; d marks the D form. Ends that are not written are not given here. Tyr(3-NO2) = N[C@@H](Cc1ccc(O)c([N+](=O)[O-])c1)C(=O)O

Experiments:
TLR-4 = biological target: T1, TLR-4 (Homo sapiens, UniProt O00206); test: Inhibition of TLR-4 receptor: IL-8 expression by osteoarthritic synoviocytes; assay type: cell-based; details: 1 hour pre-treatment with CLI-095 (500 nM, 1 and 2.5 μM), then 24 hours Coll2-1 at 4.5 nmol
T1 construct: endogenous in cells; host or cells: osteoarthritic synoviocytes (synovial fibroblast cells)
T1 sequence (O00206 24-839): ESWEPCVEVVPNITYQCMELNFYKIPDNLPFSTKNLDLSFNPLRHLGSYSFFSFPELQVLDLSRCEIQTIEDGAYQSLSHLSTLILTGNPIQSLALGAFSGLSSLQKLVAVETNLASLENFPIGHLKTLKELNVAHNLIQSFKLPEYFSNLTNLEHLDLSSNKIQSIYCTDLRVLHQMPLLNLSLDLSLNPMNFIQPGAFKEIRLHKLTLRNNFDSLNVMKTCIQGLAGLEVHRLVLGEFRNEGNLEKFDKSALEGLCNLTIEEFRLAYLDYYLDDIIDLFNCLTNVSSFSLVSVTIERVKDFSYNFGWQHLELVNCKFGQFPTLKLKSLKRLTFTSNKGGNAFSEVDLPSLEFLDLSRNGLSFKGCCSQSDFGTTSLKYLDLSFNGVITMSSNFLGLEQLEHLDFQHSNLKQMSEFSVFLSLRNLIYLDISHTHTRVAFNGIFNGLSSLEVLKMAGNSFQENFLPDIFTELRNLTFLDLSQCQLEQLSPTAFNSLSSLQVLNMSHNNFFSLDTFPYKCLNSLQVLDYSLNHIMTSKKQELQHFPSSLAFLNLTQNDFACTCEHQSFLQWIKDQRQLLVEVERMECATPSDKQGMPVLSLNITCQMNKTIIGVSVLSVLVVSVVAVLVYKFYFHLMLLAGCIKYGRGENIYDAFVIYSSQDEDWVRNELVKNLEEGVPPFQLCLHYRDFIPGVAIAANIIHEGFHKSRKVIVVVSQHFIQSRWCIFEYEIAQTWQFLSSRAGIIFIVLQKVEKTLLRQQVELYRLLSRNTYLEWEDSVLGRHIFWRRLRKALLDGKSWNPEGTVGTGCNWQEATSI
Text: (§1) 1.4 RNA extraction and Real Time Reverse Transcriptase-Polymerase Chain Reaction (RT PCR). Total RNA were extracted using the RNeasy Mini Kit (Qiagen, Netherlands) and were reverse transcribed with SuperScript III Reverse Transcriptase (Invitrogen, Belgium) according to the manufacturer's instructions. The cDNAs were quantified by real-time quantitative PCR using the Rotor Gene instrument (Qiagen, Venlo, Netherlands) and the SYBR Premix Ex Taq kit (Takara, Verviers, Belgium). The level of gene expression was determined by interpolation with a standard curve. To standardize mRNA levels, HPRT, a house keeping gene, was amplified as an internal control. The oligonucleotide primers sequences were as follow: HPRT forward, 5′-[…]-3′ (SEQ ID NO: 2); HPRT reverse, 5′-TGCCTGACCAAGGAAAGC-3′ (SEQ ID NO: 3); TSP-1 forward, 5′-CAGACCGCATTGGAGATAC-3′ (SEQ ID NO: 4); TSP-1 reverse, 5′-[…]-3′ (SEQ ID NO: 5); VEGF forward, 5′-TGCCTTGCTGCTCTAC-3′ (SEQ ID NO: 6); VEGF reverse, 5′-CACACAGGATGGCTTGAA-3′ (SEQ ID NO: 7); IL-6 forward, 5′-AAACAAATTCGGTACATCCTCG-3′ (SEQ ID NO: 8); IL-6 reverse, 5′-CCA GGC AAG TCT CCT CAT-3′ (SEQ ID NO: 9); IL-8 forward, 5′-GGAACCATCTCACTGTGTGTAA-3′ (SEQ ID NO: 10); IL-8 reverse, 5′-TGGAAAGGTTTGGAGTATGTCT-3′ (SEQ ID NO: 11).
Inhibition of TLR-4 receptor. […]

NF-κB = NF-κB activation, Western blotting of phospho-p65 and phospho-IκBα; assay type: cell-based; details: oxidative stress inhibitors: apocynin 0.2 mM and diphenyleneiodonium 6.35 10^−2 mM
Experimental: Western blotting. Cells were collected at 4° C. and lysed on ice in 50 μl of buffer (25 mM Hepes, 150 mM NaCl, 0.5% Triton X-100, 10% glycerol, and 1 mM dithiothreitol) containing protease and phosphatase inhibitors. After incubation at 4° C. for 30 minutes, lysates were then centrifugated at 14,000 g for 30 minutes at 4° C. to remove insoluble debris. Protein concentrations were determined using BCA assay. Total protein extracts (10 μg) were fractioned by electrophoresis on a polyacrylamide gel (10%) and transferred onto a PVDF membrane. Membrane were blocked for 1 h in TBS-Tween containing 2% bovine serum albumin (phosphor-NF-κB p65 and phospho-IκBα). Membranes were then incubated overnight at 4° C. with primary antibodies. Anti-rabbit phospho-NF-κB p65 (1:1000 dilution), anti-rabbit phospho-IκBα (1:1000 dilution) were used. Horse-radish peroxidase (HRP)-linked anti-rabbit IgG antibody (1:2000 dilution) was used as secondary antibody.

[1] = test system: OA synovial fibroblast cells; test: Intracellular GSH assay in OA synovial fibroblast cells; assay type: cell-based, human; details: Coll2-1NO2 at 4 and 40 pmol, 24 hours
Experimental: (§2) 1.1 Patients. Synovial tissue samples were obtained from 10 patients (8 women, 2 man; mean age 70 +/−6 years) with osteoarthritis (OA) of the knee at the time of total knee joint replacement surgery. All the subjects provided their informed consent.
(§3) 1.2 Isolation and culture of synovial cells. Synovium biopsies were digested is with collagenase from Clostridium histolyticum, Type IA (1 mg/ml) (Sigma-Aldrich, Saint-Louis, USA) and 0.25% trypsin (Sigma Aldrich, Saint Louis, USA) with 0.68 mM EDTA in Tris buffer 0.1M, pH 7.4 in complete medium (CM) (DMEM (Dulbecco's Modified Eagle's Medium) Low Glucose supplemented with 10 mM HEPES, 100 U/ml penicillin, 100 μg/ml streptomycin, 2 mM glutamine and 10% fetal calf serum (Lonza, Verviers, Belgium)) for 1 hour at 37° C. The cells suspensions were passed through a 70-μm filter to remove any undigested tissue. The filtered cells suspensions were then collected by centrifugation at 800 g and were cultured in culture flasks. After 24 hours, medium was changed to eliminate non adherent cells. Synovial fibroblasts cells (SFC) were used after three passages. […]
1.6 GSH assay. Levels of intracellular GSH were assessed by monoclorobimane staining. […] The fluorescence intensities were measured at […] using excitation and emission wavelengths of 380 and 485 nm, respectively. The intracellular GSH level was expressed as arbitrary units of fluorescence intensity.

[2] = test system: OA synovial fibroblast cells; test: Intracellular H2O2 production in OA synovial fibroblast cells; assay type: cell-based, human; details: 24 hours
Experimental: as §2
1.2 Isolation and culture of synovial cells. Synovium biopsies were digested is with collagenase from Clostridium histolyticum, Type IA (1 mg/ml) (Sigma-Aldrich, Saint-Louis, USA) and 0.25% trypsin (Sigma Aldrich, Saint Louis, USA) with 0.68 mM EDTA in Tris buffer 0.1M, pH 7.4 in complete medium (CM) (DMEM (Dulbecco's Modified Eagle's Medium) Low Glucose supplemented with 10 mM HEPES, 100 U/ml penicillin, 100 μg/ml streptomycin, 2 mM glutamine and 10% fetal calf serum (Lonza, Verviers, Belgium)) for 1 hour at 37° C. The cells suspensions were passed through a 70-μm filter to remove any undigested tissue. The filtered cells suspensions were then collected by centrifugation at 800 g and were cultured in culture flasks. After 24 hours, medium was changed to eliminate non adherent cells. Synovial fibroblasts cells (SFC) were used after three passages.
(§4) 1.3 Treatment of synovial fibroblast cells. Cells were seeded into a six-well plate at the density of 2×10^5 cells/well in 2 ml of CM. When the cells reached confluence, the CM was replaced with 1% serum medium for 24 h to keep the cells quiescent. Cells were incubated for 24 hours with or without peptides Coll2-1 (^108HRGYPGLDG^116; 0.45 and 4.5 nmol) or Coll2-1NO2 (^108HRGYPGLDG-NO2^116; 4 and 40 pmol) at a range of concentrations found in the blood of osteoarthritic patients.
1.5 Intracellular H2O2 and O2^∘^− productions. Levels of intracellular superoxide anion (O2^∘^−) and hydrogen peroxide (H2O2) were assessed spectrofluorimetrically by oxidation of specific probes: dihydroethidium (Molecular Probes, Leiden, The Netherlands) and H2DCFH-DA (Molecular Probes, Leiden, The Netherlands) respectively. Synovial cells seeded on 96-well plates (8×10^3 cells per well) were washed once with phosphate-buffered saline and then incubated with 50 μL of phosphate-buffered saline containing either 250 μM dihydroethidium or 200 μM H2DCFH-DA. The fluorescence intensity was measured every hour for 6 hours. The levels of O2^∘^− or H2O2 are expressed in arbitrary unit/living cell. The numbers of adherent cells were measured by crystal violet assay.

IL-8 = IL-8 mRNA expression by Real Time PCR in OA synovial fibroblast cells; assay type: cell-based, human; details: increasing concentrations: Coll2-1 (0.45 and 4.5 nmol) or Coll2-1NO2 (4 and 40 pmol), 24 hours
Experimental: as §4, §1

TSP1 = TSP1 mRNA expression by Real Time PCR in OA synovial fibroblast cells; assay type: cell-based, human; details: 24 hours
Experimental: as §4, §1

[3] = test system: OA synovial fibroblast cells; test: NO production in OA synovial fibroblast cells; assay type: cell-based, human; details: Coll2-1 (0.45 and 4.5 nmol) or Coll2-1NO2 (4 and 40 pmol), 24 hours
Experimental: as §2, §3
1.7 NO production. Nitric oxide production was evaluated using a DAF2-DA fluorescent probe (Molecular Probes, Leiden, The Netherlands). […] The fluorescence intensity was measured every hour for 6 hours. […] The numbers of adherent cells were measured by cristal violet assay.

VEGF = VEGF mRNA expression by Real Time PCR in OA synovial fibroblast cells; assay type: cell-based, human; details: increasing concentrations: Coll2-1 (0.45 and 4.5 nmol) or Coll2-1NO2 (4 and 40 pmol), 24 hours
Experimental: as §4
(§5) 1.4 RNA extraction and Real Time Reverse Transcriptase-Polymerase Chain Reaction (RT PCR). Total RNA were extracted using the RNeasy Mini Kit (Qiagen, Netherlands) and were reverse transcribed with SuperScript III Reverse Transcriptase (Invitrogen, Belgium) according to the manufacturer's instructions. The cDNAs were quantified by real-time quantitative PCR using the Rotor Gene instrument (Qiagen, Venlo, Netherlands) and the SYBR Premix Ex Taq kit (Takara, Verviers, Belgium). The level of gene expression was determined by interpolation with a standard curve. To standardize mRNA levels, HPRT, a house keeping gene, was amplified as an internal control. […]

IL-6 = IL-6 mRNA expression by Real Time PCR in OA synovial fibroblast cells; assay type: cell-based, human; details: increasing concentrations of peptide, 24 hours
Experimental: as §4, §5

IL-8 expression by osteoarthritic synoviocytes in the presence of Coll2-1 (TLR-4): decrease
Compound: CCOC(=O)C1=CCCC[C@H]1S(=O)(=O)Nc1ccc(F)cc1Cl [CLI-095]

Compound: COc1cc(C(C)=O)ccc1O [apocynin]
Coll2-1 induced IκBα degradation (NF-κB): decreased | Coll2-1 induced phosphorylation and translocation of p65 (NF-κB): inhibited

Compound: c1ccc2c(c1)[I+]c1ccccc1-2 [diphenyleneiodonium]
Coll2-1 induced IκBα degradation (NF-κB): decreased | Coll2-1 induced phosphorylation and translocation of p65 (NF-κB): inhibited

Compound: HRGY(NO2)PGLDG (HRG[Tyr(3-NO2)]PGLDG) [Coll2-1NO2, nitrated form of the Coll2-1 peptide]
intracellular level of GSH [1]: significant decrease | intracellular production of H2O2 ([2]; Coll2-1NO2 at 4 pmol): significantly increased | intracellular production of H2O2 ([2]; Coll2-1NO2 at 40 pmol): significantly increased | IL-8 expression (IL-8): increased | decrease of TSP1 expression, significance (TSP1; Coll2-1NO2 at 40 pmol): significant | TSP1 expression (TSP1; increasing concentrations: Coll2-1 (0.45 and 4.5 nmol) or Coll2-1NO2 (4 and 40 pmol)): decreased | production of NO (nitric oxide) [3]: decreased significantly | VEGF expression (VEGF): tended to increase | IL-6 expression (IL-6): increased
